The values that follow come from patent publication EP2181589A1, “Neurotoxic sterol glycosides” (Shaw, Christopher Ariel, priority 2008, dated 2010).

SMILES strings stand for the structures. Marks after values point to notes of the source that are not given here.

One data set relates to CD-1 mice. Briefly: Open field monitoring. Type of data set: in vivo. As to conditions: SG-fed vs control. How it is done:
Five-month old male CD-1 mice (30.1-35.7 g, 7.5 cm - 8.8 cm) were purchased from Charles River (Wilmington, MA). Adult mice were chosen to mimic the mean age of onset of ALS-PDC (Kurland, 1988; Kurland et al., 1994). Thirty mice for the SG study were randomly divided into 2 groups (14 control and 16 experimental animals). All animals were housed singly in a virus-free barrier facility in a room maintained at 22°C under a 12 hour light/dark cycle. The mice were provided ad libitum access to food and water.
(§1) The synthetic SG was mixed with finely ground Purina Chow mouse pellets (Mouse Diet™, Purina) to create the experimental pellets with a SG content of 1000 µg per pellet. Dry materials were blended with a sterile silicon spatula. For every 5 g of standard feed, 2.5 mL of doubly-distilled water (dd)H2O was added and the dough was kneaded and round up into pellets. A single sterol glucoside containing pellet was placed in the feeding tray each morning before the addition of regular mouse chow (ad libitum). All experimental pellets were entirely consumed by the mice each day. Control mice were fed standard mouse chow pellets of identical weight with no additives. SG feeding was conducted daily for 15 weeks and mice were behaviorally monitored until sacrifice at 35 weeks (time point 1) or 52 weeks (time point 2).
Open field monitoring: Spontaneous activity in an open field is considered one of the most standardized general measures of motor function (Crawley, 2000). The open field test can also reveal stress response in animals (i.e. defensive burying or thigmotaxis) (Karl et al., 2003). Open field testing of each animal was conducted every two weeks. A single mouse was placed in one of four round open field arena/tubs (approximately 1 m diameter) to permit the testing of four animals per 5 minute trial. […] This in turn, increases the likelihood of detection of fear-based behavior (Crawley, 2000) and minimizes habituation of the animal to the open field (Crawley, 2000). Testing arenas were cleaned with 70% ethanol before the testing of each animal and with quatricide at the end of each testing session. Movements were recorded using a video camera mounted on the ceiling. Video clips were reviewed and were manually scored or automatically analysed on an automated video tracking software (Ethovision® 3.1, Noldus Information Technologies Inc., Leesburg, VA, USA). Scoring was done on videotaped sessions, rather than in-person at the time of testing to avoid the introduction of confounding variables by the presence of an observer in close proximity to the mice (Crawley, 2000).

Another data set has as its system Lipid deposits. Briefly: Oil red O histochemistry (lipid deposits). In kind it is in vivo, CD-1 mice. How it is done: as §1
Tissue-mounted slides were processed to evaluate lipid distribution with light microscopy with a protocol adapted from Dr. Roy Ellis (IMVS Division of Pathology, The Queen Elizabeth Hospital, Woodville, South Australia). First, an oil red O stock solution was prepared 2 hours prior to execution of the histochemical procedures. The oil red O stock stain solution was made by mixing oil red O (0.5 g, Sigma-Aldrich, Oakville, ON, Canada) and isopropanol (100 mL, Fisher Scientific, Nepean, ON, Canada) over a 40°C water bath. Immediately prior to beginning the oil red O histochemical procedures, the oil red O working solution was made by combining 20 mL of distilled water for every 30 mL of oil red O stock stain solution. […] Slide-mounted sections were rinsed in coplin jars for 15 minutes at RT in three changes of PBS. Sections were then rinsed at RT with 60% isopropanol for 5 minutes. The spinal cord sections were then stained with a freshly prepared working solution of oil red O for 20 minutes and then rinsed with 60% isopropanol. Nuclear counterstaining was achieved by staining the sections with haematoxylin (haematoxylin, 7211, Richard Allan Scientific, Kalamazoo, MI, USA) for 1 minute. Finally, the sections were rinsed with distilled water, dried under a fume hood and cover-slipped with Entellen (Merck, Darmstadt, Germany).
The numbers of immunoreactive somata or inclusions were counted across the ventral horn of the spinal cord, across brain hemispheres, or per dorsal or ventral root with the 40x objective lens in a 600 µm / 600 µm area within region perimeters defined by a mouse brain atlas (2001). For each animal, eight cross-sections per spinal cord or brain region were studied. An average of both the right and left ventral horn for each of the eight cross sections was generated giving a final averaged number for each animal in each of the spinal cord areas. For quantification of the level of mitochondrial activity (cytochrome c oxidase labelling) in the lumbar spinal cord or tyrosine hydroxylase immunoreactivity in the substantia nigra pars compacta and striatal sections, images captured using the Motic B5 Professional Series 3.0 microscope (Motic Instruments Inc., Richmond, ON) and analyzed using Motic B5 Professional, Motic Images Advanced 3.0 (Motic Instruments Inc., Richmond, ON) were scanned into a TIFF format file and analysed using the NIH Image J 1.37 software to measure density levels of antibody labelling. Eight to 12 sections from each mouse per region of interest were included.

Consider `CCC(C=CC(C)C1CCC2C3CC=C4CC(OC5OC(CO)C(O)C(O)C5O)CCC4(C)C3CCC12C)C(C)C` (stereo not shown) [SG], for which, in the data set on CD-1 mice (time-point 1, 35 wk), the Total distance moved entry was “Total distance moved (ns)”, the “Total distance to zone border” value is “Total distance to zone border (ns)” and the Total turn angle result is given as “Total turn angle (ns)”. Moreover, the “Total distance to zone border” value in the data set on CD-1 mice (time-point 2, 52 wk) is “Total distance to zone border* (*p<0.05)”. In the data set with Lipid deposits (SG-fed animals, 35 to 52 weeks), the “accumulation of lipid deposits over time, lumbar spinal cord” value is listed as “did not experience an accumulation of deposits over time” and the “lipid deposits, time-dependent effects in the dorsal or ventral roots” value is recorded as “did not show time-dependent effects”. Moreover, in the data set with Lipid deposits (SG-fed over time, 35 to 52 wk), the “Lipid deposits, DR” value is listed as “SG-fed DR over time: ns, p=0.8062”; the “Lipid deposits, Lsc” value is on record as “SG-fed Lsc over time: ns, p=0.4864”; the “Lipid deposits, VR” value is reported as “SG-fed VR over time: ns, p=0.5478”. Moreover, in the data set with Lipid deposits (SG-fed vs control, 35 weeks), the “lipids in the dorsal roots” value was “not significant” and the “lipids in the ventral spinal roots” value is given as “+10%”. Moreover, the “lipid deposits, inter-group differences in lumbar spinal cord, dorsal root, ventral root” value in the data set with Lipid deposits (SG-fed vs control, 52 weeks) is given as “statistically significant inter-group differences were not found”. For the same compound, the “Lipids deposits Lsc VH” value with Lipid deposits (SG-fed vs control, time-point 2, 52 wk) was “Lipids deposits Lsc VH: +10%*”.
